Assay results published in patent US20250057823A1, “COMPOSITION FOR IMPROVING CARDIAC FUNCTION” (Kyoto University, priority 2021, published 2025).
Where a name gives a salt, the structure may show the parent alone.

Tested on: mouse models of HFpEF
Assay: Mouse models of HFpEF (high-fat diet + L-NAME), acute effect
Type: in vivo
Details: high-fat diet+L-NAME group
Procedure: Mouse models of HFpEF were prepared by high-fat diet and administration of L-NG-nitroarginine methyl ester (L-NAME) to test the effect of KUS121 on HFpEF. ICR mice were fed with normal diet and ultrapure water or high-fat diet and 0.5 g/L of L-NAME for 5 weeks.
Then, acute effect of KUS121 on HFpEF was tested. ICR mice fed with normal diet or high-fat diet+0.5 g/L of L-NAME were injected intraperitonially with 50 mg/kg of KUS121 and cardiac function was assessed by echocardiography before and 10 minutes after the injection. No difference in echocardiography was observed between the normal diet group and the high-fat diet+L-NAME group before injection of 5% glucose or KUS121 (FIG. 26). EF was not changed after […] in the control group and the high-fat diet+L-NAME group (FIG. 26, left and middle), but was increased after KUS121 injection in the high-fat diet+L-NAME group (FIG. 26, right).
Diastolic function was also tested. Global longitudinal strain (GLS), E/A, and E/E′ were assessed for evaluating cardiac diastolic function. Mice from the high-fat diet+L-NAME group had diastolic dysfunction as indicated by high levels of GLS, E/A, and E/E′ before KUS121 administration, the degree of which varied among the individual animals (FIG. 27).
To assess exercise tolerance, treadmill test (TMT) was performed.

[1] = 50 mg/kg i.p., before and after administration

Cc1cc(F)ccc1-c1ccc(/N=N/c2cc(S(=O)(=O)O)c3ccccc3c2N)cn1 [KUS121, 4-amino-3-[6-(4-fluoro-2-methylphenyl)pyridine-3-ylazo]naphthalene-1-sulfonic acid sodium salt]
E/A [1]: improved
E/E′ [1]: improved
Global longitudinal strain (GLS) [1]: improved
EF (left ventricular ejection fraction) (50 mg/kg i.p., echocardiography before and 10 minutes after injection): increased
blood pressure (before and after 50 mg/kg): lowered the blood pressure
exercise tolerance (distance traveled in treadmill test) (before and after 50 mg/kg): improved the exercise tolerance
heart rate (before and after 50 mg/kg): slightly lowered the heart rate
